Laboratory results taken from ChEMBL document CHEMBL5500363, “Discovery of novel ocotillol derivatives modulating glucocorticoid receptor/NF-κB signaling for the treatment of sepsis” (Eur J Med Chem, 2024).
Active and inactive are the calls of the source. No cut-off for these calls is given here.

Columns and labels:
[1] = target: T1, Glucocorticoid receptor (Mus musculus) (UniProt P06537); test: Binding affinity to glucocorticoid receptor in mouse RAW264.7 cells assessed as thermal stability by measuring protein degradation at 47 degreeC at 10 to 40 uM pretreated for 24 hrs followed by heat exposure for 3 mins and subsequently incubated at room temperature for 3 mins by CETSA; format: cell-based; settings: dose 10-40 µM, time 1446.0 min
T1 sequence (whole entry): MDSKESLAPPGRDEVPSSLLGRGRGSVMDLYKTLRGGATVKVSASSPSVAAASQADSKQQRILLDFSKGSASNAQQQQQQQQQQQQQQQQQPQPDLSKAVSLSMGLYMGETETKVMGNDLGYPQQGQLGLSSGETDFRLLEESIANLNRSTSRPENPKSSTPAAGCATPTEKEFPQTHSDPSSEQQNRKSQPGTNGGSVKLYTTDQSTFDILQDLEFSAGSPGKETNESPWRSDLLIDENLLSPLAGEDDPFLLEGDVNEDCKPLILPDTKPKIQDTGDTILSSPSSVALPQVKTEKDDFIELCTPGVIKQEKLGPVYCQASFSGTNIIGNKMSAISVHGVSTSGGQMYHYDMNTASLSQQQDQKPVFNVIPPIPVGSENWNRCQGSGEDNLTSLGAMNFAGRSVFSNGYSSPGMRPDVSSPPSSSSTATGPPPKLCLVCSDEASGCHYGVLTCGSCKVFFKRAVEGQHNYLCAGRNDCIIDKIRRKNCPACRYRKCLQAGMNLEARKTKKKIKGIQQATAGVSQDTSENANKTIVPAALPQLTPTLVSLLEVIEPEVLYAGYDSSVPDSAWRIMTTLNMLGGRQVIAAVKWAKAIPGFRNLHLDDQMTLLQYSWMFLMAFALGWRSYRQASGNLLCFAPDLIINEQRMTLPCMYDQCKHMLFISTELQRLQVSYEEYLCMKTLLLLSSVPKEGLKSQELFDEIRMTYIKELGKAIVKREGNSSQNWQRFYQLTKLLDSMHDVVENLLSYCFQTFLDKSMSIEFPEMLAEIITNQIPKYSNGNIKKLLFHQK

Mus musculus [2] = test: Anti-septic activity in LPS-induced sepsis BALB/c mouse assessed as body weight recovery at 7.5 to 30 mg/kg administered via gavage for 3 days followed by LPS treatment for 6 hrs; format: functional, organism-based; settings: dose 7.5-30 mg/kg, time 78.0 hrs
[3] = target: T1, Glucocorticoid receptor (Mus musculus); test: Modulation of glucocorticoid receptor in LPS-treated mouse RAW264.7 cells assessed as protein translocation from cytoplasm to nucleus at 20 uM pretreated for 12 hrs followed by LPS stimulation for 2 hrs by immunofluorescence based analysis; format: subcellular; settings: filed as modulator, time 14.0 hrs
Mus musculus [4] = test: Anti-septic activity in LPS-induced sepsis BALB/c mouse assessed as reduction in serum CRP level at 7.5 to 30 mg/kg administered via gavage for 3 days followed by LPS treatment for 6 hrs; format: functional, organism-based; settings: dose 7.5-30 mg/kg, time 78.0 hrs
RAW264.7 [5] = test: Effect on KLF9 mRNA expression in mouse RAW264.7 cells by qPCR analysis; format: functional, cell-based
Mus musculus [6] = test: Anti-septic activity in LPS-induced sepsis BALB/c mouse assessed as reduction in lung tissue damage at 7.5 to 30 mg/kg administered via gavage for 3 days followed by LPS treatment for 6 hrs by H and E staining based analysis; format: functional, organism-based; settings: dose 7.5-30 mg/kg, time 78.0 hrs
RAW264.7 [7] = test: Upregulation of glucocorticoid receptor mRNA expression in LPS-treated mouse RAW264.7 cells incubated for 24 hrs by qRT-PCR analysis; format: functional, cell-based
[8] = target: T1, Glucocorticoid receptor (Mus musculus); test: Binding affinity to glucocorticoid receptor in mouse RAW264.7 cells assessed as increase in thermal stability at 47 to 51 degreeC at 40 uM pretreated for 24 hrs followed by heat exposure for 3 mins and subsequently incubated at room temperature for 3 mins by CETSA; format: cell-based; settings: time 1446.0 min
Mus musculus [9] = test: Upregulation of glucocorticoid receptor expression in liver of LPS-induced sepsis BALB/c mouse model at 7.5 to 30 mg/kg administered via gavage for 3 days followed by LPS treatment for 6 hrs by immunofluorescence analysis; format: functional, organism-based; settings: dose 7.5-30 mg/kg, time 78.0 hrs
[10] = target: T1, Glucocorticoid receptor (Mus musculus); test: Binding affinity to glucocorticoid receptor in mouse RAW264.7 cells assessed as increase in thermal stability at 47 degreeC pretreated for 24 hrs followed by heat exposure for 3 mins and subsequently incubated at room temperature for 3 mins by CETSA; format: cell-based; settings: dose 2.5-40 µM, time 1446.0 min
Mus musculus [11] = test: Anti-septic activity in LPS-induced sepsis BALB/c mouse assessed as reduction in serum IL-6 level at 7.5 to 30 mg/kg administered via gavage for 3 days followed by LPS treatment for 6 hrs by ELISA; format: functional, organism-based; settings: dose 7.5-30 mg/kg, time 78.0 hrs
RAW264.7 [12] = test: Anti-inflammatory activity in LPS-treated mouse RAW264.7 cells assessed as reversal of nuclear translocation of p65 at 20 uM pretreated for 2 hrs followed by LPS stimulation for 24 hrs by immunofluorescence analysis; format: functional, cell-based; settings: time 26.0 hrs
Mus musculus [13] = test: Anti-septic activity in LPS-induced sepsis BALB/c mouse assessed as reduction in serum TNF-alpha level at 7.5 to 30 mg/kg administered via gavage for 3 days followed by LPS treatment for 6 hrs by ELISA; format: functional, organism-based; settings: dose 7.5-30 mg/kg, time 78.0 hrs
[14] = target: T1, Glucocorticoid receptor (Mus musculus); test: Stabilization of glucocorticoid receptor in mouse RAW264.7 cells assessed as blockade of CHX-induced protein degradation at 20 uM incubated for 24 hrs by Western blot analysis; format: cell-based
RAW264.7 [15] = test: Inhibition of LPS-induced NO production in mouse RAW264.7 cells at 5 uM pretreated for 2 hrs followed by LPS stimulation for 24 hrs by Griess assay relative to control; format: functional; settings: time 26 hrs
RAW264.7 [16] = test: Anti-inflammatory activity in mouse RAW264.7 cells assessed as decrease in LPS-induced I-kappaB-alpha phosphorylation at 20 uM pretreated for 2 hrs followed by LPS stimulation for 24 hrs by Western blot analysis; format: functional, cell-based; settings: time 26.0 hrs
RAW264.7 [17] = test: Inhibition of LPS-induced NO production in mouse RAW264.7 cells at 10 uM pretreated for 2 hrs followed by LPS stimulation for 24 hrs by Griess assay relative to control; format: functional; settings: time 26 hrs
[18] = Cytotoxicity against mouse RAW264.7 cells assessed as cell viability at 40 uM incubated for 24 hrs by MTT assay relative to control; format: toxicity, cell-based; settings: read-out: Activity
RAW264.7 [19] = test: Anti-inflammatory activity in mouse RAW264.7 cells assessed as inhibition of LPS-induced TNF-alpha production pretreated for 2 hrs followed by LPS stimulation for 24 hrs by ELISA; format: functional, cell-based; settings: dose 5-20 µM, time 26.0 hrs
Mus musculus [20] = test: Downregulation of I-kappa-B-alpha phosphorylation in liver of LPS-induced sepsis BALB/c mouse model at 7.5 to 30 mg/kg administered via gavage for 3 days followed by LPS treatment for 6 hrs by Western blot analysis; format: functional, organism-based; settings: dose 7.5-30 mg/kg, time 78.0 hrs
Mus musculus [21] = test: Anti-septic activity in LPS-induced sepsis BALB/c mouse assessed as reduction in serum AST level at 30 mg/kg administered via gavage for 3 days followed by LPS treatment for 6 hrs; format: functional, organism-based; settings: time 78.0 hrs
Mus musculus [22] = test: Anti-septic activity in LPS-induced sepsis BALB/c mouse assessed as increase in survival rate at 7.5 to 30 mg/kg administered via gavage for 3 days followed by LPS treatment for 6 hrs; format: functional, organism-based; settings: dose 7.5-30 mg/kg, time 78.0 hrs
RAW264.7 [23] = test: Downregulation of glucocorticoid receptor in mouse RAW264.7 cells at 20 uM incubated for 24 hrs by Western blot analysis; format: functional, cell-based

Activity [1]: Active
Activity [3]: Active
Activity [8]: Active
Activity [10]: Dose-Dependent Effect
Activity [14]: Active
SMILES: CC(C)(C)OC(=O)CCC(=O)Nc1nc2c(s1)C[C@]1(C)[C@H]3C[C@@H](O)[C@@H]4C([C@]5(C)CC[C@@H](C(C)(C)O)O5)CC[C@@]4(C)[C@]3(C)CC[C@H]1C2(C)C (stereo partly drawn)
Activity (Mus musculus [2]): Active
Activity (Mus musculus [4]): Active
Activity (RAW264.7 [5]): inactive
Activity (Mus musculus [6]): Active
Activity (RAW264.7 [7]): Active
Activity (Mus musculus [9]): Active
Activity (Mus musculus [11]): Active
Activity (RAW264.7 [12]): Active
Activity (Mus musculus [13]): Active
inhibition at 5 µM (RAW264.7 [15]): 30.3%
Activity (RAW264.7 [16]): Active
inhibition at 10 µM (RAW264.7 [17]): 52.6%
viability at 24 h, 40 µM [18]: > 90%
inhibition (RAW264.7 [19]): Dose-Dependent Effect
Activity (Mus musculus [20]): Active
Activity (Mus musculus [21]): Active
Activity (Mus musculus [22]): Active
Activity (RAW264.7 [23]): inactive
